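48-hour exposure; five concentrations; linearly interpolated endpoints. Abbreviation: GI50, concentration required for 50% inhibition of growth.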 The source made the active and inactive calls. Rule as the data show it: active = GI50 up to about 1.1 µM and inactive = higher.

Some test systems named below: NCI-H460; SN12C; CAKI-1; KM12; CCRF-CEM; OVCAR-5; MCF7; ACHN; RPMI-8226; NCI-H23; MDA-N; UO-31; A549; MOLT-4; HCC 2998; 786-0; Hs-578T; HL-60; EKVX; T47D.
Common to all, as to experiment: growth of human tumour cells (NCI), 48 h

Take `CCCCOCCOCCOC1=C(Cl)C(=O)c2c(O)ccc(O)c2C1=O`: the GI50 in the test on NCI-H460 was 1.85 µM (inactive); with SN12C it was 1.61 µM (inactive); in the test on CAKI-1 it was 0.209 µM (active); in the test on KM12, 1.79 µM (inactive); in the test on CCRF-CEM, < 0.01 µM (active); with OVCAR-5 it was 2.52 µM (inactive). The GI50 was 0.218 µM (active) in the test with MCF7; 1.59 µM (inactive) in the test with ACHN; 0.212 µM (active) in the test with RPMI-8226; 0.984 µM (active) with NCI-H23; 0.728 µM (active) with MDA-N; 1.35 µM (inactive) with UO-31. Besides, the GI50 in the test with A549 is 1.85 µM (inactive); in the test with MOLT-4, 0.0138 µM (active); in the test on HCC 2998, 2.1 µM (inactive); in the test on 786-0 it was 1.79 µM (inactive); in the test on Hs-578T, 2.4 µM (inactive); in the test on HL-60, 0.144 µM (active). The GI50 in the test with EKVX is 2.57 µM (inactive); in the test with T47D it was 0.488 µM (active).
In the case of `CO/N=C(\C)c1cccc(Nc2c3ccccc3nc3occc23)c1`, the GI50 was 5.81 µM (inactive) with NCI-H460; 16 µM (inactive) with SN12C; 4.82 µM (inactive) in the test on CAKI-1; 8.81 µM (inactive) with KM12; 5.42 µM (inactive) in the test with CCRF-CEM; 20.5 µM (inactive) with OVCAR-5. Besides, the GI50 with MCF7 was 6.47 µM (inactive); with RPMI-8226 it was 4.36 µM (inactive); in the test on NCI-H23 it was 7.45 µM (inactive); with MDA-N, 4.35 µM (inactive); in the test on UO-31 it was 12.8 µM (inactive); in the test on A549 it was 11.7 µM (inactive). For the same compound, the GI50 in the test with MOLT-4 is 4.63 µM (inactive); in the test on HCC 2998, 6.93 µM (inactive); in the test with 786-0, 14.7 µM (inactive); with Hs-578T, 17 µM (inactive); in the test with HL-60, 3.53 µM (inactive); in the test with EKVX, 11.1 µM (inactive). In addition, the GI50 in the test on T47D is 7.23 µM (inactive).
In the case of `O=C(c1ccc(F)cc1)c1cccc(C(=O)c2ccc(F)cc2)n1`, the GI50 in the test with NCI-H460 was > 100 µM (inactive); in the test on SN12C, 55.2 µM (inactive); with CAKI-1, 28 µM (inactive); in the test with KM12 it was > 100 µM (inactive); in the test on CCRF-CEM, > 100 µM (inactive); in the test with OVCAR-5 it was > 95.3 µM (inactive). Also, the GI50 was > 100 µM (inactive) with MCF7; 46.2 µM (inactive) with ACHN; > 100 µM (inactive) with RPMI-8226; 20.2 µM (inactive) in the test on NCI-H23; > 100 µM (inactive) in the test on MDA-N; 45.3 µM (inactive) in the test with UO-31. Also, the GI50 with A549 is 69.2 µM (inactive); in the test on MOLT-4, > 100 µM (inactive); in the test on HCC 2998 it was > 100 µM (inactive); with 786-0, 37.8 µM (inactive); with Hs-578T, 25.6 µM (inactive); with HL-60 it was > 100 µM (inactive). The GI50 is > 100 µM (inactive) in the test with EKVX and 34.4 µM (inactive) with T47D.
As to `O=C1C(=Cc2cccc(Cl)c2)N=C(c2ccccc2)N1n1c(-c2ccccc2)nc2ccccc2c1=O`, the GI50 in the test with NCI-H460 was 6 µM (inactive); in the test on SN12C, 45.2 µM (inactive); with CAKI-1, 45.1 µM (inactive); in the test on KM12, 9.55 µM (inactive); in the test on CCRF-CEM, 22.9 µM (inactive); in the test with OVCAR-5, 67.6 µM (inactive). For the same compound, the GI50 is 25.9 µM (inactive) with MCF7; 37.7 µM (inactive) in the test on ACHN; 40.8 µM (inactive) with RPMI-8226; 20 µM (inactive) in the test on NCI-H23; 33.8 µM (inactive) in the test with MDA-N; 34.4 µM (inactive) in the test on UO-31. Also, the GI50 with A549 is 32.9 µM (inactive); with MOLT-4, 23.4 µM (inactive); in the test with HCC 2998, 30.7 µM (inactive); in the test with 786-0 it was 47.4 µM (inactive); with Hs-578T, 41.4 µM (inactive); in the test on HL-60, 24.2 µM (inactive). Further, the GI50 was 28.4 µM (inactive) in the test with EKVX and 29.7 µM (inactive) with T47D.
On to `COc1cc2c(cc1O)C(Cc1ccc(OCc3ccccc3)c(OCc3ccccc3)c1)N(C(=O)NCCc1ccccc1)CC2` (configuration not stated), for which the GI50 was > 100 µM (inactive) in the test with NCI-H460; > 100 µM (inactive) in the test with SN12C; > 100 µM (inactive) with CAKI-1; > 100 µM (inactive) with KM12; 15 µM (inactive) in the test with CCRF-CEM; > 100 µM (inactive) in the test with OVCAR-5. For the same compound, the GI50 is 14.8 µM (inactive) with MCF7; > 100 µM (inactive) with ACHN; 10.4 µM (inactive) with RPMI-8226; > 100 µM (inactive) with NCI-H23; > 100 µM (inactive) with MDA-N; 69 µM (inactive) in the test on UO-31. Besides, the GI50 in the test with A549 is 20.8 µM (inactive); with MOLT-4, > 100 µM (inactive); with HCC 2998, 86.9 µM (inactive); with 786-0, > 100 µM (inactive); in the test with Hs-578T it was > 100 µM (inactive); in the test on HL-60, 37.3 µM (inactive). Besides, the GI50 was > 100 µM (inactive) with EKVX and 16.4 µM (inactive) in the test on T47D.
Take `O=C1C(Br)=CC2(C=C1Br)CCNC1=C2C2=NCCc3c[nH]c(c32)C1=O`: the GI50 with NCI-H460 is 0.548 µM (active); in the test on SN12C it was 0.146 µM (active); in the test with CAKI-1 it was 0.134 µM (active); in the test on KM12, 0.516 µM (active); in the test on CCRF-CEM it was 0.0198 µM (active); in the test on OVCAR-5, 0.69 µM (active). In addition, the GI50 was 0.0266 µM (active) with MCF7; 0.0962 µM (active) in the test on ACHN; 0.0355 µM (active) in the test on RPMI-8226; 0.119 µM (active) in the test with NCI-H23; 0.102 µM (active) in the test on MDA-N; 0.308 µM (active) in the test with UO-31. In addition, the GI50 in the test with A549 was 0.951 µM (active); with MOLT-4, 0.0315 µM (active); in the test on HCC 2998, 0.506 µM (active); with 786-0, 0.124 µM (active); with Hs-578T, 0.445 µM (active); in the test with HL-60 it was 0.0129 µM (active). Also, the GI50 is 0.231 µM (active) with EKVX and 0.0828 µM (active) in the test on T47D.
Turning to `CCn1c(SCC(=O)N/N=C2\SCC(=O)N2c2ccc(C)cc2)nc2ccccc2c1=O`, the GI50 in the test with NCI-H460 is 24.7 µM (inactive); in the test with SN12C, 27 µM (inactive); in the test with CAKI-1, 18.7 µM (inactive); in the test with KM12 it was 19.4 µM (inactive); in the test on CCRF-CEM, 34 µM (inactive); in the test on OVCAR-5, 20.5 µM (inactive). Besides, the GI50 in the test on MCF7 is 20.6 µM (inactive); with ACHN it was 18.6 µM (inactive); in the test with RPMI-8226, 18.5 µM (inactive); in the test on NCI-H23 it was 19.1 µM (inactive); with MDA-N, 23.6 µM (inactive); with UO-31, 15.1 µM (inactive). Moreover, the GI50 was 21.2 µM (inactive) in the test with A549; 25.9 µM (inactive) in the test on MOLT-4; 36.8 µM (inactive) with HCC 2998; 19.1 µM (inactive) in the test with 786-0; 16.4 µM (inactive) in the test on Hs-578T; 92.3 µM (inactive) in the test with HL-60. Also, the values for the GI50 in the test with EKVX and with T47D were 22.4 µM (inactive) and 25.1 µM (inactive), respectively.
Turning to `Cc1ccc(S[C@@](C=O)(NC(=O)OCc2ccccc2)C(F)(F)F)cc1`, the GI50 with NCI-H460 is 29.9 µM (inactive); in the test on SN12C, 26.7 µM (inactive); in the test with CAKI-1 it was 26.1 µM (inactive); in the test on KM12 it was 20.8 µM (inactive); in the test with CCRF-CEM, 23.2 µM (inactive); in the test on OVCAR-5 it was 23.2 µM (inactive). For the same compound, the GI50 was 26.7 µM (inactive) in the test on MCF7; 20.6 µM (inactive) in the test on RPMI-8226; 19.5 µM (inactive) in the test with NCI-H23; 22.8 µM (inactive) in the test on MDA-N; 15.6 µM (inactive) in the test on UO-31; 21.2 µM (inactive) in the test on A549. The GI50 in the test on MOLT-4 was 21.5 µM (inactive); in the test with HCC 2998 it was 37.8 µM (inactive); in the test with 786-0, 20.4 µM (inactive); in the test on Hs-578T it was 44.3 µM (inactive); in the test on HL-60, 16.5 µM (inactive); in the test on EKVX, 22.3 µM (inactive). For the same compound, the GI50 in the test on T47D is 23.8 µM (inactive).
With `COc1cc2c(cc1C)NC(=O)/C2=C/c1c(Cl)n(C)c2ccccc12`, the GI50 with NCI-H460 is 6.71 µM (inactive); with SN12C, 12.8 µM (inactive); in the test on CAKI-1, 5.06 µM (inactive); in the test on KM12, 3.34 µM (inactive); in the test on CCRF-CEM it was 1.9 µM (inactive); in the test with OVCAR-5, 12.5 µM (inactive). Besides, the GI50 with MCF7 is 3.45 µM (inactive); in the test with ACHN, 10.3 µM (inactive); with RPMI-8226 it was 3.13 µM (inactive); in the test with NCI-H23, 6.27 µM (inactive); in the test with MDA-N, 2.15 µM (inactive); in the test on UO-31 it was 7.05 µM (inactive). Also, the GI50 with A549 was 10.2 µM (inactive); in the test with MOLT-4, 2.15 µM (inactive); in the test on HCC 2998 it was 5.18 µM (inactive); in the test on 786-0, 12.7 µM (inactive); in the test with Hs-578T, 3.42 µM (inactive); in the test on HL-60, 2.61 µM (inactive). Further, the values for the GI50 with EKVX and in the test on T47D were 6.68 µM (inactive) and 2.62 µM (inactive), respectively.
As to `OC[C@H]1O[C@@H](n2cnc3c(S)ncnc32)[C@H](O)[C@@H]1O` [THIOINOSINE], the GI50 with NCI-H460 is 2140 µM (inactive); with SN12C, > 2500 µM (inactive); in the test on CAKI-1, > 2500 µM (inactive); in the test with KM12 it was > 2500 µM (inactive); in the test with CCRF-CEM, 1120 µM (inactive); in the test on OVCAR-5 it was > 2500 µM (inactive). The GI50 was 2290 µM (inactive) in the test with MCF7; > 2500 µM (inactive) with ACHN; 1400 µM (inactive) in the test on RPMI-8226; > 2500 µM (inactive) in the test on NCI-H23; > 2310 µM (inactive) in the test on MDA-N; > 2500 µM (inactive) in the test with A549. Moreover, the GI50 in the test on MOLT-4 was 2300 µM (inactive); in the test on HCC 2998 it was > 2500 µM (inactive); with 786-0, > 2500 µM (inactive); in the test on Hs-578T it was > 2440 µM (inactive); in the test with HL-60 it was > 1760 µM (inactive); with EKVX, > 2500 µM (inactive). In addition, the GI50 with T47D was 1830 µM (inactive).

These data come from ChEMBL document CHEMBL1201862, “PubChem BioAssay data set” (2004).
